Experimental data reported in patent US20230321086A1, “METHODS AND MATERIALS FOR INHIBITING NICOTINAMIDE PHOSPHORIBOSYLTRANSFERASE ACTIVITY” (Universiy of Pittsburgh - Of the Commonwealth System of …, priority 2020, published 2023).

System: A431 cells
Experiment: Assay for total NADH and NAD+ measurements in cells
Type: cell-based
Set-up: C: change in NAD levels in response to test compound, shown as % of NAD activity in the absence of test compound: concentration or dose not given beside the values
Conditions: percent of NAD level of untreated control cells (100 = no change)
Description: 2,000 cells/well and, at the same time, test compounds dissolved in media at the desired concentration were added to each well. The treated cells were incubated overnight in C02 incubator. The cells were washed 6 times with PBS with 1 mM CaCl2) and 1 mM MgCl2. In the last wash, 10 μL of PBS with 1 mM CaCl2) and 1 mM MgCl2 per well were left in each well. Immediately thereafter, 10 μL 0.4% dodecyltrimethylammonium bromide (DTAB) in phosphate buffer pH 8.0 as added, and the plates were shaked at 1000 rpm for 5 minutes. 60 μL reaction mix was added, and fluorescence at Ex/Em 530/585 was immediately monitored. A linear increase should be achieved with 8 cycles every 92 seconds, 10 number of flashes/well/cycle. The reaction mix was prepared per the following table, respecting the amount and order in which each component was added:
All assays were performed in A431 cells. Referring to the tables below, activity: “+” ≥25 μM, “++” ≥1 μM and <25 μM, and “+++”<1 μM.
In each table header, A: NAMPT enzyme inhibitory activity, IC50 (μM); B: Cellular NAD inhibitory activity, IC50 (μM); and C: change in NAD levels in response to test compound, shown as % of NAD activity in the absence of test compound. […] A percentage of 100 percent would indicate no increase or decrease in NAD levels as compared to that measured for untreated control cells, while a percentage of 50 percent would indicate a decrease in NAD levels of 50 percent as compared to that measured for untreated control cells.

Compound | C: change in NAD levels in response to test compound, shown as % of NAD activity in the absence of test compound
OCCn1cc(-c2ccc3nc(-c4ccc(F)cc4)c(-c4ccc(F)cc4)nc3c2)nn1 [BC19396] | 60%
C#CC(=O)Nc1ccc2nc(-c3ccc(F)cc3)c(-c3ccc(F)cc3)nc2c1 [BC19397] | 65%
CN1CCN(C(=O)c2ccc3nc(-c4ccc(F)cc4)c(-c4ccc(Cl)cc4Cl)nc3c2)CC1 [BC19398] | 94%
CN1CCN(C(=O)c2ccc3nc(-c4ccc(F)cc4)c(-c4ccc(OC(F)(F)F)cc4)nc3c2)CC1 [BC19399] | 92%
CN1CCN(C(=O)c2cccc3nc(-c4ccc(F)cc4)c(-c4ccc(F)cc4)nc23)CC1 [BC19400] | 76%
Cn1cc(-c2cnc3nc(-c4ccc(F)cc4)c(-c4ccc(F)cc4)nc3c2)nn1 [BC19401] | 55%
CCCn1cc(-c2cnc3nc(-c4ccc(F)cc4)c(-c4ccc(F)cc4)nc3c2)nn1 [BC19402] | 64%
Fc1ccc(-c2nc3cccnc3nc2-c2ccc(F)cc2)cc1 [BC19403] | 68%
OCCn1ncc(-c2ccc3nc(-c4ccc(F)cc4)c(-c4ccc(F)cc4)nc3c2)n1 [BC19404] | 65%
CN1CCN(C(=O)c2ccc3nc(-c4ccc(F)cc4F)c(-c4ccccc4)nc3c2)CC1 [BC19405] | 69%
C#CCNC(=O)c1ccc2nc(-c3ccc(F)cc3F)c(-c3ccccc3)nc2c1 [BC19406] | 93%
CN1CCN(C(=O)c2cnc3nc(-c4ccc(F)cc4)c(-c4ccc(F)cc4)nc3c2)CC1 [BC19408] | 95%
CN1CCN(C(=O)c2ccc3nc(-c4ccc(OC(F)(F)F)cc4)c(-c4ccc(OC(F)(F)F)cc4)nc3c2)CC1 [BC19445] | 14%
CNC(=O)c1ccc2nc(-c3ccc(OC(F)(F)F)cc3)c(-c3ccc(OC(F)(F)F)cc3)nc2c1 [BC19447] | 50%
Oc1ccc2nc(-c3ccc(F)cc3)c(-c3ccc(F)cc3)nc2n1 [BC19448] | 78%
CN1CCN(C(=O)c2ccc3nc(-c4ccc(Cl)cc4)c(-c4ccc(Cl)cc4)nc3c2)CC1 [BC19450] | 78%
C#CCNC(=O)c1ccc2nc(-c3ccc(Cl)cc3)c(-c3ccc(Cl)cc3)nc2c1 [BC19451] | 57%
O=C(NCCO)c1ccc2nc(-c3ccc(OC(F)(F)F)cc3)c(-c3ccc(OC(F)(F)F)cc3)nc2c1 [BC19453] | 88%
COCC(=O)N1CCC(C(=O)Nc2ccc3nc(-c4ccc(F)cc4)c(-c4ccc(F)cc4)nc3c2)CC1 [BC19494] | 52%
Cn1cnnc1-c1cnc2nc(-c3ccc(F)cc3)c(-c3ccc(F)cc3)nc2c1 [BC19496] | 95%

Compound | C: change in NAD levels in response to test compound, shown as % of NAD activity in the absence of test compound
O=C(NCCN1CCOCC1)c1ccc2nc(-c3ccc(Cl)cc3)c(-c3ccc(Cl)cc3)nc2c1 [BC19497] | 49%
CN1CCN(C(=O)c2ccc3nc(-c4cccc(N(C)C)c4)c(-c4cccc(N(C)C)c4)nc3c2)CC1 [BC19498] | 66%
O=C(NCCN1CCOCC1)c1ccc2nc(-c3ccc(OC(F)(F)F)cc3)c(-c3ccc(OC(F)(F)F)cc3)nc2c1 [BC19503] | 43%
O=S(=O)(NCCN1CCOCC1)c1ccc2nc(-c3ccc(F)cc3)c(-c3ccc(F)cc3)nc2c1 [BC19504] | 58%
O=S(=O)(NC1CC1)c1ccc2nc(-c3ccc(F)cc3)c(-c3ccc(F)cc3)nc2c1 [BC19505] | 30%
O=S(=O)(NCC1CC1)c1ccc2nc(-c3ccc(F)cc3)c(-c3ccc(F)cc3)nc2c1 [BC19506] | 66%
COCCNS(=O)(=O)c1ccc2nc(-c3ccc(F)cc3)c(-c3ccc(F)cc3)nc2c1 [BC19507] | 53%
O=S(=O)(NCCCN1CCOCC1)c1ccc2nc(-c3ccc(F)cc3)c(-c3ccc(F)cc3)nc2c1 [BC19508] | 28%
O=S(=O)(NCCCO)c1ccc2nc(-c3ccc(F)cc3)c(-c3ccc(F)cc3)nc2c1 [BC19509] | 66%
CN1CCN(c2ccc3nc(-c4ccc(F)cc4)c(-c4ccc(F)cc4)nc3c2)CC1 [BC19510] | 41%
CC(=O)N1CCN(c2ccc3nc(-c4ccc(F)cc4)c(-c4ccc(F)cc4)nc3c2)CC1 [BC19511] | 26%
N#Cc1ccc2nc(-c3ccc(F)cc3)c(-c3ccc(F)cc3)nc2n1 [BC19512] | 85%
O=C(c1ccc2nc(-c3ccc(F)cc3)c(-c3ccc(F)cc3)nc2c1)N1CCN(CCO)CC1 [BC19513] | 49%
O=C(c1ccc2nc(-c3ccc(F)cc3)c(-c3ccc(F)cc3)nc2c1)N1CCN(CCOCCO)CC1 [BC19514] | 73%
COCCCNS(=O)(=O)c1ccc2nc(-c3ccc(F)cc3)c(-c3ccc(F)cc3)nc2c1 [BC19554] | 52%
CN(C)CCNS(=O)(=O)c1ccc2nc(-c3ccc(F)cc3)c(-c3ccc(F)cc3)nc2c1 [BC19555] | 1%
CCNS(=O)(=O)c1ccc2nc(-c3ccc(F)cc3)c(-c3ccc(F)cc3)nc2c1 [BC19556] | 44%
O=S(=O)(NCc1cccnc1)c1ccc2nc(-c3ccc(F)cc3)c(-c3ccc(F)cc3)nc2c1 [BC19557] | 63%
O=S(=O)(NCc1ccccn1)c1ccc2nc(-c3ccc(F)cc3)c(-c3ccc(F)cc3)nc2c1 [BC19559] | 42%
